From patent publication US20250179050A1, “POLYMORPH AS THYROID HORMONE RECEPTOR AGONISTS AND USE THEREOF” (XIZANG HAISCO PHARMACEUTICAL CO., LTD., priority 2022, published 2025)
One block for each compound: values may come before it.

Key:
Type in all cases: physicochemical
[1] = Thermal crystal transformation test (hot stage, XRPD)
Method: The present invention further provides a method for preparing the polymorph of any one of Form A to Form Z, including: • (1) suspension method: adding a crude free base of the compound of formula I (which can be prepared according to the methods described in WO 2019240938 A1) to a selected single or binary solvent until a suspension is formed and stirring same under suspension at room temperature to 50° C. for a period of time (e.g., 1 h to 3 days, or 2 h to 24 h, or 2 h to 12 h, or 3 h to 5 h), and then centrifuging and separating the suspension, followed by drying, to obtain the product; or • (2) Anti-solvent crystallization method: adding a crude free base of the compound of formula I to an appropriate amount of a good solvent until completely dissolved, taking an amount of the solution and dropwise adding same to a poor solvent or dropwise adding a poor solvent to the solution, and stirring same to precipitate a solid, followed by separation and drying to obtain the product; or • (3) cooling method: adding a crude free base of the compound of formula I to an appropriate amount of a solvent at 50-80° C. until the solid is just completely dissolved, and transferring the solution to an environment at room temperature for cooling, followed by leaving to stand or crystallization under stirring, separation and drying to obtain the product; or • (4) vapor diffusion method: dropwise adding an appropriate amount of a good solvent to an amount of a crude free base of the compound of formula I at room temperature to completely dissolve the sample or formulating same as a saturated solution of a good solvent; and separately taking an amount of the solution, and leaving the clear solution to stand in a poor solvent atmosphere at room temperature until a solid precipitates out, followed by separation, to obtain the product; or • (5) thermal crystal transformation method: placing an amount of the sample on a glass plate on a hot stage, heating same to the target temperature at a rate (e.g., 5-20° C./min, or 10-15° C./min), and maintaining the temperature for a period of time (e.g., 0.5-5 min, or 1-3 min, or 1-2 min), followed by naturally cooling down to room temperature to obtain a solid.
The different crystal forms, as raw materials, were heated to the target temperature on a hot table and held for 1 min, and cooled to room temperature to obtain solids for the XRPD test.

[2] = Crystal form on leaving to stand at room temperature; details: room temperature for 3 days
Method: To 100 mg of the compound of formula I prepared in Example 1, 1 ml of methanol was added and heated to reflux. 1 ml of acetonitrile was added dropwise, slowly cooled to room temperature, stirred for 3-5 h and centrifuged, and the resulting solid was dried under vacuum overnight at room temperature to give Form U. Form U of the compound of formula I was characterized by XRPD, DSC and TGA, as shown in FIGS. 41-42, respectively. […] Based on the integration results, the roughly estimated mass percentage is about 5.2%. In summary, Form U is a solvate of acetonitrile in a ratio of 1:1 of the compound to acetonitrile.

[3] = Dynamic moisture sorption and desorption analysis (DVS)
Method: Dynamic Moisture Sorption and Desorption Analysis The dynamic moisture sorption and desorption analysis was determined using DVS Intrinsic (SMS, UK). The test was carried out in a gradient mode with a humidity change of 50%-95%-0%-50%, and a humidity change of 10% per gradient in the range of 0% to 90%, and the gradient endpoint was determined in dm/dt, with the gradient endpoint being dm/dt less than 0.002% and held for 10 minutes. After the test was complete, XRPD analysis of the sample was carried out to confirm whether the solid morphology has changed.

[4] = Stability test 1: high temperature, high humidity, light, accelerated conditions, XRPD; details: 15 days
Method: Around 20 mg of samples were weighed into weighing bottles, stored under high temperature (60° C.), high humidity (25° C., 92.5% RH), light (25° C., 4500 Lux), accelerated (40° C., 75% RH) conditions, respectively, and samples were collected at days 7 and 15 for XRPD characterization.

[5] = Stability test 2: 40° C.±2° C., 75% RH±5% RH, HPLC related substances and crystal form; details: for Crystal form / Related Substances (%) Maximum individual impurity / Related Substances (%) Total impurity: 40° C.±2° C.
Method: The Form C sample was measured using the HPLC method at 40° C.±2° C., 75% RH±5% RH at months 0, 1, 2, 3, and 6 using a double layer pharmaceutical low density polyethylene bag as an inner wrap and a polyester/aluminum/polyethylene pharmaceutical composite bag as an outer wrap.

[6] = Stability test 3: 5° C.±3° C., HPLC related substances; details: for Crystal form / Related Substances (%) Maximum individual impurity / Related Substances (%) Total impurity: 5° C.±3° C.
Method: The Form C sample was measured using the HPLC method at 5° C.±3° C. at months 0, 3, 6, 9, and 12 using a double layer pharmaceutical low density polyethylene bag as an inner wrap and a polyester/aluminum/polyethylene pharmaceutical composite bag as an outer wrap.

[7] = Stability test 4: 25° C.±2° C., 60% RH±5% RH, HPLC related substances; details: for Crystal form / Related Substances (%) Maximum individual impurity / Related Substances (%) Total impurity: 25° C.±2° C.
Method: The Form C sample was measured using the HPLC method at 25° C.±2° C., 60% RH±5% RH at months 0, 3, 6, 9, and 12 using a double layer pharmaceutical low density polyethylene bag as an inner wrap and a polyester/aluminum/polyethylene pharmaceutical composite bag as an outer wrap.

[8] = Stability test 5: 30° C.±2° C., 65% RH±5% RH, HPLC related substances; details: for Crystal form / Related Substances (%) Maximum individual impurity / Related Substances (%) Total impurity: 30° C.±2° C.
Method: The Form C sample was measured using the HPLC method at 30° C.±2° C., 65% RH±5% RH at months 0, 3, 6, 9, and 12 using a double layer pharmaceutical low density polyethylene bag as an inner wrap and a polyester/aluminum/polyethylene pharmaceutical composite bag as an outer wrap.

crystal form after thermal crystal transformation ([1]; heated to 250° C.): Form C
Results (crystal form after thermal crystal transformation, XRPD) ([1]; target temperature 250° C., heating rate 10° C./min, holding time 1 min): Form C
crystal form after leaving to stand [2]: Form L
SMILES: [2H]C([2H])([2H])[C@@H]1CCc2c(Oc3c(Cl)cc(-n4nc(C#N)c(=O)[nH]c4=O)cc3Cl)n[nH]c(=O)c21 [Form U, (R)-2-(3,5-dichloro-4-((7-(methyl-d3)-1-oxo-2,5,6,7-tetrahydro-1H-cyclopenta [d]pyridazin-4-yl)oxy)phenyl)-3,5-dioxo-2,3,4,5-tetrahydro-1,2,4-triazine-6-carbonitrile]

hygroscopicity ([3]; DVS 50%-95%-0%-50% humidity): almost no hygroscopicity
DVS weight loss ([3]; at 0% humidity): 0.13%
DVS weight gain ([3]; at 95% humidity): 0.20%
crystal form after the DVS test (XRPD) ([3]; samples after the DVS test): no change in crystal form
crystal form stability (XRPD) ([4]; accelerated (40° C., 75% RH)): no change in crystal form
crystal form stability (XRPD) ([4]; high humidity (25° C., 92.5% RH)): no change in crystal form
crystal form stability (XRPD) ([4]; high temperature (60° C.)): no change in crystal form
crystal form stability (XRPD) ([4]; light (25° C., 4500 Lux)): no change in crystal form
Crystal form ([5]; 0 months): Form C
Related Substances (%) Maximum individual impurity ([5]; 0 months): 0.05%
Related Substances (%) Total impurity ([5]; 0 months): 0.26%
Crystal form ([5]; 1 month): Form C
Related Substances (%) Maximum individual impurity ([5]; 1 month): 0.05%
Related Substances (%) Total impurity ([5]; 1 month): 0.25%
Crystal form ([5]; 2 months): Form C
Related Substances (%) Maximum individual impurity ([5]; 2 months): 0.05%
Related Substances (%) Total impurity ([5]; 2 months): 0.26%
Crystal form ([5]; 3 months): Form C
Related Substances (%) Maximum individual impurity ([5]; 3 months): 0.05%
Related Substances (%) Total impurity ([5]; 3 months): 0.26%
Crystal form ([5]; 6 months): Form C
Related Substances (%) Maximum individual impurity ([5]; 6 months): 0.05%
Related Substances (%) Total impurity ([5]; 6 months): 0.28%
stability (related substances) ([5]; within 6 months at 40° C.±2° C.): good stability
Crystal form ([6]; 0 months): Form C
Related Substances (%) Maximum individual impurity ([6]; 0 months): 0.05%
Related Substances (%) Total impurity ([6]; 0 months): 0.26%
Crystal form ([6]; 3 months): Form C
Related Substances (%) Maximum individual impurity ([6]; 3 months): 0.05%
Related Substances (%) Total impurity ([6]; 3 months): 0.27%
Crystal form ([6]; 6 months): Form C
Related Substances (%) Maximum individual impurity ([6]; 6 months): 0.05%
Related Substances (%) Total impurity ([6]; 6 months): 0.26%
Crystal form ([6]; 9 months): Form C
Related Substances (%) Maximum individual impurity ([6]; 9 months): 0.05%
Related Substances (%) Total impurity ([6]; 9 months): 0.26%
Crystal form ([6]; 12 months): Form C
Related Substances (%) Maximum individual impurity ([6]; 12 months): 0.05%
Related Substances (%) Total impurity ([6]; 12 months): 0.26%
stability (related substances) ([6]; within 12 months at 5° C.±3° C.): good stability
Crystal form ([7]; 0 months): Form C
Related Substances (%) Maximum individual impurity ([7]; 0 months): 0.05%
Related Substances (%) Total impurity ([7]; 0 months): 0.26%
Crystal form ([7]; 3 months): Form C
Related Substances (%) Maximum individual impurity ([7]; 3 months): 0.05%
Related Substances (%) Total impurity ([7]; 3 months): 0.27%
Crystal form ([7]; 6 months): Form C
Related Substances (%) Maximum individual impurity ([7]; 6 months): 0.05%
Related Substances (%) Total impurity ([7]; 6 months): 0.26%
Crystal form ([7]; 9 months): Form C
Related Substances (%) Maximum individual impurity ([7]; 9 months): 0.05%
Related Substances (%) Total impurity ([7]; 9 months): 0.26%
Crystal form ([7]; 12 months): Form C
Related Substances (%) Maximum individual impurity ([7]; 12 months): 0.05%
Related Substances (%) Total impurity ([7]; 12 months): 0.27%
stability (related substances) ([7]; within 12 months at 25° C.±2° C.): good stability
Crystal form ([8]; 0 months): Form C
Related Substances (%) Maximum individual impurity ([8]; 0 months): 0.05%
Related Substances (%) Total impurity ([8]; 0 months): 0.26%
Crystal form ([8]; 3 months): Form C
Related Substances (%) Maximum individual impurity ([8]; 3 months): 0.05%
Related Substances (%) Total impurity ([8]; 3 months): 0.26%
Crystal form ([8]; 6 months): Form C
Related Substances (%) Maximum individual impurity ([8]; 6 months): 0.05%
Related Substances (%) Total impurity ([8]; 6 months): 0.27%
Crystal form ([8]; 9 months): Form C
Related Substances (%) Maximum individual impurity ([8]; 9 months): 0.05%
Related Substances (%) Total impurity ([8]; 9 months): 0.25%
Crystal form ([8]; 12 months): Form C
Related Substances (%) Maximum individual impurity ([8]; 12 months): 0.05%
Related Substances (%) Total impurity ([8]; 12 months): 0.26%
stability (related substances) ([8]; within 12 months at 30° C.±2° C.): good stability
SMILES: [2H]C([2H])([2H])[C@@H]1CCc2c(Oc3c(Cl)cc(-n4nc(C#N)c(=O)[nH]c4=O)cc3Cl)n[nH]c(=O)c21 [Form C, (R)-2-(3,5-dichloro-4-((7-(methyl-d3)-1-oxo-2,5,6,7-tetrahydro-1H-cyclopenta [d]pyridazin-4-yl)oxy)phenyl)-3,5-dioxo-2,3,4,5-tetrahydro-1,2,4-triazine-6-carbonitrile]
